We go through eleven compounds from patent US20190270778A1, “Cyclic Peptides As C5a Receptor Antagonists” (priority 2016, published 2019).

The conditions of series [1]: the molecule shown is the open-chain precursor, amide bond, 18-membered ring.
For series [2], the target named is T1, C5a receptor (Homo sapiens, UniProt P21730).
T1 construct: endogenous in cells; host or cells: leukocytes/granulocytes in freshly drawn whole blood of healthy volunteers
T1 sequence (P21730 1-350): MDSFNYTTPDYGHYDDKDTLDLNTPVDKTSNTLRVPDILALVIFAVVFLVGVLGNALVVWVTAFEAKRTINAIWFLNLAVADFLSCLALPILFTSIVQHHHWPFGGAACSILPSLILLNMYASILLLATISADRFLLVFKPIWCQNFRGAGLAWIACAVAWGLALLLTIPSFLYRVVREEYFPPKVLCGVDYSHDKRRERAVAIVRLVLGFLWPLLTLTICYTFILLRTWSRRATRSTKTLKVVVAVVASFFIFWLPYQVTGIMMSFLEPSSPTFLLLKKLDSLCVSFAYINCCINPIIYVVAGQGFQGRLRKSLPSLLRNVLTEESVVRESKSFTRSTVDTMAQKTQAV
The series can be described thus: HWB oxidative burst assay (C5a-induced, luminol chemiluminescence). Type of series: cell-based. Here is the method:
Inhibition of oxidative burst activity was determined in HWB primed with TNF-α and stimulated with C5a. C5a-induced oxidative burst response (generation of reactive oxygen species) was then detected in the presence of luminol as a chemiluminescent signal.
On the day of assay, HWB was collected from a healthy, non-medicated volunteer into tubes containing 3.8% sodium citrate (final sodium citrate concentration in HWB is 0.38%) and stored in a 37° C. water bath until use (no longer than 60 minutes).
To start the assay, TNF-α was added to HWB to a final concentration of 1.0 nM and 68 μL of this HWB/TNF-α mix was transferred to each well of a 384-well white Optiplate (assay plate). 4.0 μL of various concentrations of test agent were then added to the assay plate and mixed twice gently by aspirating up and down. The assay plate was then placed on a thermoshaker (JITTERBUG-4) and incubated at 37° C. (without shaking). After 60 minutes, C5a (Complement Technology) prepared in luminol (Sigma) was added to the assay plate and mixed twice gently by aspirating up and down. The plate was then placed in a ViewLux 1430 Microplate Imager (Perkin Elmer). After 5 minutes, oxidative burst activity was determined with the ViewLux by measuring luminol-enhanced whole blood chemiluminescence. Final assay conditions were 1.5 mM HEPES pH 7.5, 0.015% BSA, 15% HBSS, 0.85 ng/mL TNFα, 1.0 mM Luminol, C5a 20 nM, 76.5% HWB, 0.15% DMSO and various concentrations of test agent.
The percent (%) effect at each concentration of test agent was then calculated based on and relative to the amount of signal that was produced by positive (i.e. full inhibition of C5a induced oxidative burst) and negative (i.e. completely uninhibited C5a induced oxidative burst) control wells contained within each assay plate. The concentration and % effect values for test agents were plotted and the concentration of test agent required for 50% effect (IC50) was determined with a four-parameter logistic dose response equation (BioBook; IDBS). Kb (nM) was then calculated (BioBook; IDBS) using the equation described by Leff and Dougal (TIPS 1993 14:110-112).

Series [3] has as its target T1, C5a receptor. The series can be described thus: HWB CD11b expression assay (C5a-challenged granulocytes, flow cytometry). Type of series: cell-based. Here is the method:
HWB was collected from healthy, non-medicated volunteers into BD Vacutainer® blood collection tubes with K2EDTA as an anticoagulant. HWB was aliquoted (85 μL/well) in 96-well, deep-well, V-bottom plates and incubated at 37° C. for 30 minutes. Test compounds (5 μL/well) were added to HWB and incubated at 37° C. for 30 minutes. Anti-human CD11b antibody conjugated with APC (BD Biosciences) was added to HWB (5 μL/well) and incubated at 37° C. for additional 30 minutes. HWB was then challenged with human C5a (final 1 nM) for 30 minutes at 37° C. Samples were treated with warm 1× Lyse/Fix buffer (BD Biosciences) to terminate activation and further incubated at 37° C. for 20 minutes to lyse red blood cells. Assay plates were centrifuged at 300×g for 5 minutes, supernatant was aspirated, and cells were washed once with PBS containing 0.5% FBS. Washed cells were resuspended in PBS containing 0.5% FBS and subjected to flow cytometric analysis using an LSRFortessa equipped with a HTS plate loader (BD Biosciences). The granulocyte population was gated for analysis of MF of CD11b staining using FACSDiva version 6.2 (BD Biosciences). Data from 11 compound concentrations (singlicate at each concentration) was normalized as a percentage of control based on the formula:
% of Control=100×(A−B)/(C−B)
where A is MF from wells containing test compound and C5a, B is MF from wells without C5a (background MF from unstimulated samples) and C is MF from wells containing only C5a (maximum MF). Inhibition curves and IC50 values (test compound concentrations which produce 50% inhibition) were determined using the Prism version 5 software (GraphPad). HWB was also stimulated with 11 different concentrations of C5a to construct a responsive curve and to obtain EC50 value (the concentration of C5a that gives half-maximal response) and curve slope using the Prism version 5 software. Kb (nM) was then calculated using the equation described by Leff and Dougal (TIPS 1993 14:110-112).

Like-named read-outs stand apart in the source and are kept apart here.

“H-Pro((4S)-NHBoc)-dAla(3-(cis-4-hydroxycyclohexyl))-Trp(Boc)-Arg(Pbf)-Orn(Nα-[Boc-N(CH2CO2tBu)-Phe]; chain through Nδ)-OH” had a ring closure, crude yield in series [1] (HATU/NMM, THF/DMF) of 100%.
In turn, “H-Hyp(tBu)-dAla(3-(cis-4-hydroxycyclohexyl))-Ala(3-(4-methyl-1H-pyrazol-1-yl))-Arg(Pbf)-Orn(Nα-[Boc-N(CH2CO2tBu)-Phe]; chain through Nδ)-OH” returned a ring closure, crude yield in series [1] of 48%.
With `N=C(N)NCCC[C@@H]1NC(=O)[C@H](Cc2c[nH]c3ccccc23)NC(=O)[C@@H](C[C@H]2CC[C@@H](O)CC2)NC(=O)[C@@H]2C[C@H](N)CN2C(=O)[C@@H](NC(=O)[C@H](Cc2ccccc2)NCC(=O)O)CCCNC1=O` [Example 7, ((S)-1-(((3R,6S,9S,15S,19S,20aS)-6-((1H-indol-3-yl)methyl)-19-amino-9-(3-guanidinopropyl)-3-(((1s,4S)-4-hydroxycyclohexyl)methyl)-1,4,7,10,16-pentaoxoicosahydropyrrolo[1,2-a][1,4,7,10,13]pentaazacyclooctadecin-15-yl)amino)-1-oxo-3-phenylpropan-2-yl)glycine], the values for the Kb in series [2] and in series [3] were 0.0018 µM and 0.0109 µM, respectively.
For the compound `CCc1ccc2c(C[C@@H]3NC(=O)[C@@H](C[C@H]4CC[C@@H](O)CC4)NC(=O)[C@@H]4C[C@@H](O)CN4C(=O)[C@@H](NC(=O)[C@H](Cc4ccccc4)NCC(=O)O)CCCNC(=O)[C@H](CCCNC(=N)N)NC3=O)c[nH]c2c1` [Example 17, ((S)-1-(((31R,6S,9S,15S,19R,20aS)-6-((6-ethyl-1H-indol-3-yl)methyl)-9-(3-guanidinopropyl)-19-hydroxy-3-(((1s,4S)-4-hydroxycyclohexyl)methyl)-1,4,7,10,16-pentaoxoicosahydropyrrolo[1,2-a][1,4,7,10,13]pentaazacyclooctadecin-15-yl)amino)-1-oxo-3-phenylpropan-2-yl)glycine], the Kb came to 0.0297 µM in series [2] and 0.234 µM in series [3].
Regarding “H-Pro((4S)-N(Boc)CH2CO2tBu)-dAla(3-(cis-4-hydroxycyclohexyl))-Trp(Boc)-Arg(Pbf)-Orn(Nα-[Boc-N(CH2CO2tBu)-Phe]; chain through Nδ)-OH”, the ring closure, crude yield in series [1] came out at 100%.
As to `N=C(N)NCCC[C@@H]1NC(=O)[C@H](Cc2c[nH]c3ncccc23)NC(=O)[C@@H](C[C@H]2CC[C@@H](O)CC2)NC(=O)[C@@H]2C[C@@H](O)CN2C(=O)[C@@H](NC(=O)[C@H](Cc2ccccc2)NCC(=O)O)CCCNC1=O` [Example 6, ((S)-1-(((3R,6S,9S,15S,19R,20aS)-6-((1H-pyrrolo[2,3-b]pyridin-3-yl)methyl)-9-(3-guanidinopropyl)-19-hydroxy-3-(((1s,4S)-4-hydroxycyclohexyl)methyl)-1,4,7,10,16-pentaoxoicosahydropyrrolo[1,2-a][1,4,7,10,13]pentaazacyclooctadecin-15-yl)amino)-1-oxo-3-phenylpropan-2-yl)glycine], the Kb in series [2] amounted to 0.0681 µM; in series [3], 0.46 µM.
Consider `N=C(N)NCCC[C@@H]1NC(=O)[C@H](Cc2c[nH]c3ccccc23)NC(=O)[C@@H](C[C@H]2CC[C@@H](O)CC2)NC(=O)[C@@H]2C[C@@H](OCC(=O)O)CN2C(=O)[C@@H](NC(=O)[C@H](Cc2ccccc2)NCC(=O)O)CCCNC1=O` [Example 2, 2-(((3R,6S,9S,15S,19R,20aS)-6-((1H-indol-3-yl)methyl)-15-((S)-2-((carboxymethyl)amino)-3-phenylpropanamido)-9-(3-guanidinopropyl)-3-(((1s,4S)-4-hydroxycyclohexyl)methyl)-1,4,7,10,16-pentaoxoicosahydropyrrolo[1,2-a][1,4,7,10,13]pentaazacyclooctadecin-19-yl)oxy)acetic Acid], for which the Kb in series [2] was found to be 0.003 µM; in series [3], 0.0288 µM.
The like results for `N=C(N)NCCC[C@@H]1NC(=O)[C@H](Cc2n[nH]c3ccccc23)NC(=O)[C@@H](C[C@H]2CC[C@@H](O)CC2)NC(=O)[C@@H]2C[C@@H](O)CN2C(=O)[C@@H](NC(=O)[C@H](Cc2ccccc2)NCC(=O)O)CCCNC1=O` [Example 16, ((S)-1-(((31R,6S,9S,15S,19R,20aS)-6-((1H-indazol-3-yl)methyl)-9-(3-guanidinopropyl)-19-hydroxy-3-(((1s,4S)-4-hydroxycyclohexyl)methyl)-1,4,7,10,16-pentaoxoicosahydropyrrolo[1,2-a][1,4,7,10,13]pentaazacyclooctadecin-15-yl)amino)-1-oxo-3-phenylpropan-2-yl)glycine] were, in that order, 0.0065 µM and 0.0752 µM.
For `N=C(N)NCCC[C@@H]1NC(=O)[C@H](Cc2c[nH]c3ncccc23)NC(=O)[C@@H](C[C@H]2CC[C@@H](O)CC2)NC(=O)[C@@H]2CCCN2C(=O)[C@@H](NC(=O)[C@H](Cc2ccccc2)NCC(=O)O)CCCNC1=O` [Example 5, ((S)-1-(((3R,6S,9S,15S,20aS)-6-((1H-pyrrolo[2,3-b]pyridin-3-yl)methyl)-9-(3-guanidinopropyl)-3-(((1s,4S)-4-hydroxycyclohexyl)methyl)-1,4,7,10,16-pentaoxoicosahydropyrrolo[1,2-a][1,4,7,10,13]pentaazacyclooctadecin-15-yl)amino)-1-oxo-3-phenylpropan-2-yl)glycine], the Kb is 0.0273 µM in series [2] (human whole blood primed with TNF-α, stimulated with C5a 20 nM, Kb calculated from IC50 (Leff and Dougal), read-out: Oxidative burst, Kb); 0.3 µM in series [3] (human whole blood challenged with human C5a 1 nM, granulocyte CD11b mean fluorescence, Kb calculated from IC50 (Leff and Dougal), read-out: CD11b, Kb).
`N=C(N)NCCC[C@@H]1NC(=O)[C@H](Cc2c[nH]c3ccccc23)NC(=O)[C@@H](C[C@H]2CC[C@@H](O)CC2)NC(=O)[C@@H]2C[C@@H](N)CN2C(=O)[C@@H](NC(=O)[C@H](Cc2ccccc2)NCC(=O)O)CCCNC1=O` [Example 8, ((S)-1-(((3R,6S,9S,15S,19R,20aS)-6-((1H-indol-3-yl)methyl)-19-amino-9-(3-guanidinopropyl)-3-(((1s,4S)-4-hydroxycyclohexyl)methyl)-1,4,7,10,16-pentaoxoicosahydropyrrolo[1,2-a][1,4,7,10,13]pentaazacyclooctadecin-15-yl)amino)-1-oxo-3-phenylpropan-2-yl)glycine]: the Kb came out at 0.004 µM in series [2] and 0.0198 µM in series [3].
Taken in the same sequence, the figures for `Cc1cnn(C[C@@H]2NC(=O)[C@@H](C[C@H]3CC[C@@H](O)CC3)NC(=O)[C@@H]3C[C@@H](O)CN3C(=O)[C@@H](NC(=O)[C@H](Cc3ccccc3)NCC(=O)O)CCCNC(=O)[C@H](CCCNC(=N)N)NC2=O)c1` [Example 3, ((S)-1-(((3R,6S,9S,15S,19R,20aS)-9-(3-guanidinopropyl)-19-hydroxy-3-(((1s,4S)-4-hydroxycyclohexyl)methyl)-6-((4-methyl-1H-pyrazol-1-yl)methyl)-1,4,7,10,16-pentaoxoicosahydropyrrolo[1,2-a][1,4,7,10,13]pentaazacyclooctadecin-15-yl)amino)-1-oxo-3-phenylpropan-2-yl)glycine] were 0.0216 µM and 0.212 µM.
